{"source": "patent US9644213B2", "about": "“Method of enhancing plant drought tolerance by expression of NDR1” (BOARD OF TRUSTEES OF MICHIGAN STATE UNIVERSITY, priority 2012, dated 2017)", "key": {"WT Col-0 stomata": {"tested_on": "WT Col-0 stomata", "assay": "ABA-induced stomata closure in epidermal peels", "assay_type": "cell-based, Arabidopsis thaliana", "conditions": "WT Col-0 epidermal peels; 10 μM ABA; 1 h; vs mock", "method": "(§1) Stomata serve an important function in response to water stress, in large part by regulating transpiration rates. As an integral part of water stress, the regulation of stomatal aperture is a mechanism through which ABA-mediated signaling drives the conformational change in the shape of the guard cells, leading to a decrease in aperture size. To determine its putative role in linking ABA and stomata response, the NDR1 function was assayed. Epidermal peels of WT Col-0 and the ndr1 mutant were treated with 10 μM ABA, and after 1 hour, the stomata apertures were measured."}, "ndr1 stomata": {"tested_on": "ndr1 stomata", "assay": "ABA-induced stomata closure in epidermal peels", "assay_type": "cell-based, Arabidopsis thaliana", "conditions": "10 μM ABA, 1 h, vs mock", "method": "as §1"}, "[1]": {"tested_on": "Arabidopsis thaliana ndr1-1 seeds", "assay": "Seed germination assay on ABA medium", "assay_type": "in vivo", "conditions": "ndr1 mutant", "method": "(§2) Arabidopsis thaliana Col-0 and ndr1-1 seeds were surface sterilized with 50% bleach and 0.1% Triton X-100 for 20 min, with shaking, and rinsed five times with sterile distilled water under horizontal laminar flow hood. […] Plates were stratified at 4° C. for 4 days, in the dark, before being transferred to a growth chamber at 20° C., with a 12 h/12 h light/dark cycle and a light intensity of 120 μmol photons m^−2 s^−1.\n(§3) During seed germination and dormancy assays, the radicle emergence was scored as germination and obvious cotyledons formation with green color was recorded as green cotyledons, respectively. The experiment was repeated five times, independently."}, "[2]": {"tested_on": "Arabidopsis thaliana Col-0 seeds", "assay": "Seed germination assay on ABA medium", "assay_type": "in vivo", "method": "as §2, §3"}}}
{"smiles": "CC1=CC(=O)CC(C)(C)[C@@]1(O)/C=C/C(C)=C\\C(=O)O", "note": "[ABA, abscisic acid]", "values": [{"measurement": "stomata aperture", "setting": "WT Col-0 stomata", "value": "significant reduction in aperture"}, {"measurement": "stomata aperture", "setting": "ndr1 stomata", "value": "did not show a change in aperture"}, {"measurement": "germination rate (radicle emergence)", "setting": "[1]; 0.5 μM ABA", "value": 90, "unit": "%"}, {"measurement": "germination rate (radicle emergence)", "setting": "[1]; 1.0 μM ABA", "value": 65, "unit": "%"}, {"measurement": "germination rate (radicle emergence)", "setting": "[2]; 0.5 μM ABA", "value": 65, "unit": "%"}, {"measurement": "germination rate (radicle emergence)", "setting": "[2]; 1.0 μM ABA", "value": 36, "unit": "%"}]}
